# Test results reported in publication PMC7297889, “In vivo absolute quantification of striatal and extrastriatal D2/3 receptors with [^123I]epidepride SPECT” (EJNMMI Research, 2020).
# Values joined by “and” are separate entries in the source; they are usually repeats but may differ in a detail not shown here. Identical values can stand only once.
# How the values were obtained:
# [1] = arterial plasma analysis: metabolite correction and plasma protein binding; format: in vivo; details: rat arterial plasma, 4 rats
# Text: (§1) 18 male Mdr1a (P-glycoprotein) knock-out (KO) rats, weighing between 380 and 500 g, were employed in the study. Using this rat strain allowed us to study the kinetics of [^123I]epidepride independently of the potentially confounding effect of the P-glycoprotein [30–34]. Of these, 3 rats were employed in an in vivo multi-injection SPECT imaging protocol for absolute D2/3 receptor quantification (SPECT-MI in Table 1). Four rats were employed in an arterial plasma analysis for the study of plasma kinetics of the radiotracer and the estimation of the free parent radiotracer fraction (TLC in Table 1). Four rats were employed in a SPECT experiment with a partial D2/3 receptor saturation design for the determination of Bavail and appKd parameters from an in vivo Scatchard plot (SPECT-PSA in Table 1). Finally, 7 rats were employed in a preliminary study of the effect of a chronic haloperidol treatment on the Bavail and appKd of the D2/3 receptors in rats (SPECT-PSA_HAL for haloperidol-treated and SPECT-PSA_CON for control rats in Table 1, see Additional file 1).
# The whole multi-injection study TAC data was fitted in with a two-tissue compartment five-parameter model (2T-5k), to estimate K1, k2, kon, koff, and Bavail as previously described. The free, non-metabolized radiotracer fraction in the plasma was used as the input function. During dynamic SPECT acquisitions, 40 arterial blood samples (of 25 μl each) were withdrawn after each radiotracer injection at regular time intervals. Radioactivity was measured in a gamma counting system and expressed in kBq/ml after calibration. To estimate the plasma input function in in vivo SPECT experiments, only whole-blood radioactivity was measured individually and the free, non-metabolized radiotracer fraction was fitted using a model estimated in an independent experiment. Indeed, metabolite correction and plasma protein binding analysis for the estimation of radiotracer plasma input function was performed in an independent group of 4 rats, as previously described The analysis was performed in MATLAB software R2019 (Mathworks, USA).
# As described in the “Methods” section describing the multi-injection study protocol, in each dynamic brain SPECT study, only whole-arterial blood radioactivity was measured. The free, non-metabolized radiotracer fraction was estimated by fitting average data from an independent group of four rats in an experiment that was independent from the SPECT scan experiments. The parameters of the bi-exponential function describing the kinetics of the mean percent non-metabolized plasma radiotracer were A1 = 0.61, B1 = − 0.20, A2 = 0.27, B2 = − 0.006. Average percentage of radiotracer bound to plasma proteins was 22% (f1 = 0.22 ± 0.06). […]
# D2/3 receptors [2] = assay: multi-injection SPECT protocol, 2T-5k full kinetic modeling; format: in vivo, rat; details: mean of 3 rats; for Kd: read-out: appKD
# Text: as §1
# (§2) SPECT scans were performed with a U-SPECT-II camera (MiLabs, Utrecht, Netherlands). In rats that underwent SPECT scans with the multi-injection protocol, two polyethylene catheters (i.d. = 0.58 mm, o.d. = 0.96 mm) were inserted in the left femoral vein and artery for radiotracer administration and blood sampling, respectively. On the other hand, in rats that underwent SPECT scans for the partial saturation protocol, radiotracer injection was performed via a tail vein catheter. SPECT scans were performed under isoflurane anesthesia (3% for induction and 1–2% for maintenance). Body temperature was monitored during the scans and maintained at 37 ± 1 °C by means of a thermostatically controlled heating blanket.
# (§3) SPECT image reconstruction was performed using a pixel-ordered subset expectation maximization (P-OSEM, 0.4-mm voxel size, 4 iterations, 6 subsets) algorithm using MiLabs image reconstruction software. Radioactive decay correction was performed, while correction for attenuation or scatter was not. Following reconstruction, dynamic images from the partial saturation experiment were denoised with factor analysis (FA) using Pixies software (Apteryx, Issy-les-Moulineaux, France) as previously described. FA allows the decomposition of a dynamic signal into a few elementary components, termed factors. In this study, 3 factors were retained and the rest of the signal was discarded as noise. SPECT images were processed with PMOD software v3.7 (PMOD Technologies Ltd, Zurich, Switzerland). Averaged images corresponding to the ten first frames of the acquisition were co-registered to a magnetic resonance imaging (MRI) template integrated in PMOD [37]. Transformation matrices were then applied to dynamic images.
# A multi-injection protocol for full kinetic modeling of [^123I]epidepride was employed. The scan protocol began with a first injection of the radiotracer at a high-specific activity, followed by a second co-injection of [^123I]epidepride and the unlabeled compound at 180 min and a third injection of the unlabeled compound alone at 240 min. The overall scan protocol included 360 1-min frames (Fig. 1).
# The whole multi-injection study TAC data was fitted in with a two-tissue compartment five-parameter model (2T-5k), to estimate K1, k2, kon, koff, and Bavail as previously described. The free, non-metabolized radiotracer fraction in the plasma was used as the input function. During dynamic SPECT acquisitions, 40 arterial blood samples (of 25 μl each) were withdrawn after each radiotracer injection at regular time intervals. Radioactivity was measured in a gamma counting system and expressed in kBq/ml after calibration. […]
# D2/3 receptors [3] = assay: in vivo partial saturation SPECT study (in vivo Scatchard plot); design: species or system rat; details: mean of 4 rats; for Kd: read-out: appKD
# Text: as §1, §2, §3
# A partial saturation protocol was employed to estimate Bavail and appKd as recently described for another D2/3 radiotracer based on the original description by Delforge et al., as optimized by Wimberley et al.. Briefly, co-injection of a dose of the unlabeled compound at doses that occupy 50–70% of the receptors allows to form a Scatchard plot when the specifically bound fraction of radiotracer (CS) is plotted against the ratio of CS to the non-displaceable binding at the same region (CS/CND). The intercept to the CS axis provides the Bavail and the inverse of the slope the appKd.
# In the partial saturation approach, the cerebellar TAC is employed as an approximation of the non-displaceable binding in the target brain VOIs. Given the differences in the concentration of this binding between the Cer and the target VOIs, as well as the presence of a non-negligible specific binding in the Cer with [^123I]epidepride, the cerebellar TAC has to be corrected. […]
# D2/3 receptors [4] = assay: chronic haloperidol treatment, striatal D2/3 Bavail by [^123I]epidepride partial saturation SPECT; format: in vivo, rat; details: for increase in Bavail vs vehicle-treated group: haloperidol 1 mg/kg/day 28 days; for Bavail of [^123I]epidepride in haloperidol-treated group: haloperidol 1 mg/kg/day sc 28 days, scan 7 days after, n=3
# Text: as §1
# For this purpose, two groups of rats were treated with either haloperidol (1 mg/kg/day, n=3) or vehicle (n=4) for 28 days. A [^123I]epidepride SPECT scan using the partial saturation protocol was performed 7 days (a sufficient period for the complete elimination of haloperidol) after the end of the treatment period to assess neurochemical changes with respect to the D2/3 receptor. The radioactivity doses that were employed are presented in Table 1 (SPECT-PSA_HAL for haloperidol-treated and SPECT-PSA_CON for control rats). Statistical analysis of the difference in the quantitative parameter values between the groups was performed by means of a two-sample t test.
# Haloperidol was purchased from Sigma-Aldrich (Buchs, Switzerland). It was dissolved in dimethyl-sulfoxide (DMSO) 50% v/v in water. Osmotic pumps (Alzet, Durect, Cupertino, CA, USA) were employed to continuously deliver the treatment at a dose of 1 mg/kg/day over 28 days. For the pump implantation, rats were anesthetized with isoflurane (3% for induction and 1-2 % for maintenance). Body temperature was monitored during the scans and maintained at 37±1 °C by means of a thermostatically controlled heating blanket. An incision was performed in the lateral abdominal wall and a pump was subcutaneously implanted. Subcutaneous analgesia (0.02 mg/kg/8h sc; Temgesic, Reckitt Benckiser Pharmaceuticals Inc) was administered right before surgery and was continued per os in the drinking water for 48h. For the removal of the osmotic pumps, the same surgical procedure was performed after the end of the treatment period (28 days).
structure (smiles),measurement,setting,value
CCN1CCC[C@H]1CNC(=O)c1cc(I)cc(OC)c1OC [[^123I]epidepride],fraction unbound,"[1]; male, Mdr1a (P-glycoprotein) knock-out, read-out: Average percentage of radiotracer bound to plasma proteins (converted)",0.78
same,A1 of bi-exponential function of mean percent non-metabolized plasma radiotracer,[1],0.61
same,A2 of bi-exponential function of mean percent non-metabolized plasma radiotracer,[1],0.27
same,f1,[1],0.22 ± 0.06
same,Bavail,D2/3 receptors [2]; Amy,2.71 pmol/mL
same,k2,D2/3 receptors [2]; Amy,0.16 min⁻¹
same,koff,D2/3 receptors [2]; Amy,0.0005 s⁻¹
same,Κ1,D2/3 receptors [2]; Amy,0.38 mL.cm^-3 .min-^1
same,Kd,D2/3 receptors [2]; Amy,0.36 nM
same,Bavail,D2/3 receptors [2]; CP,24.22 pmol/mL
same,k2,D2/3 receptors [2]; CP,0.10 min⁻¹
same,koff,D2/3 receptors [2]; CP,0.00067 s⁻¹
same,Κ1,D2/3 receptors [2]; CP,0.69 mL.cm^-3 .min-^1
same,Kd,D2/3 receptors [2]; CP,0.22 nM
same,Bavail,D2/3 receptors [2]; Cer,2.02 pmol/mL
same,k2,D2/3 receptors [2]; Cer,0.20 min⁻¹
same,koff,D2/3 receptors [2]; Cer,0.00033 s⁻¹
same,Κ1,D2/3 receptors [2]; Cer,0.66 mL.cm^-3 .min-^1
same,Kd,D2/3 receptors [2]; Cer,0.65 nM
same,Bavail,D2/3 receptors [2]; FC,20.67 pmol/mL
same,k2,D2/3 receptors [2]; FC,0.09 min⁻¹
same,koff,D2/3 receptors [2]; FC,0.0005 s⁻¹
same,Κ1,D2/3 receptors [2]; FC,0.40 mL.cm^-3 .min-^1
same,Kd,D2/3 receptors [2]; FC,4.5 nM
same,Bavail,D2/3 receptors [2]; Hyp,3.64 pmol/mL
same,k2,D2/3 receptors [2]; Hyp,0.13 min⁻¹
same,koff,D2/3 receptors [2]; Hyp,0.00083 s⁻¹
same,Κ1,D2/3 receptors [2]; Hyp,0.50 mL.cm^-3 .min-^1
same,Kd,D2/3 receptors [2]; Hyp,0.37 nM
same,Bavail,D2/3 receptors [2]; InfC,3.03 pmol/mL
same,k2,D2/3 receptors [2]; InfC,0.17 min⁻¹
same,koff,D2/3 receptors [2]; InfC,0.00067 s⁻¹
same,Κ1,D2/3 receptors [2]; InfC,0.80 mL.cm^-3 .min-^1
same,Kd,D2/3 receptors [2]; InfC,0.18 nM
same,Bavail,D2/3 receptors [2]; NAc,10.18 pmol/mL
same,k2,D2/3 receptors [2]; NAc,0.10 min⁻¹
same,koff,D2/3 receptors [2]; NAc,0.00067 s⁻¹
same,Κ1,D2/3 receptors [2]; NAc,0.53 mL.cm^-3 .min-^1
same,Kd,D2/3 receptors [2]; NAc,0.15 nM
same,Bavail,D2/3 receptors [2]; SupC,3.86 pmol/mL
same,k2,D2/3 receptors [2]; SupC,0.16 min⁻¹
same,koff,D2/3 receptors [2]; SupC,0.00083 s⁻¹
same,Κ1,D2/3 receptors [2]; SupC,0.70 mL.cm^-3 .min-^1
same,Kd,D2/3 receptors [2]; SupC,0.28 nM
same,Bavail,D2/3 receptors [2]; VTA,3.77 pmol/mL
same,k2,D2/3 receptors [2]; VTA,0.14 min⁻¹
same,koff,D2/3 receptors [2]; VTA,0.00067 s⁻¹
same,Κ1,D2/3 receptors [2]; VTA,0.57 mL.cm^-3 .min-^1
same,Kd,D2/3 receptors [2]; VTA,0.34 nM
same,Bavail,"D2/3 receptors [3]; Amy, fixed appKd",2.77 pmol/mL
same,Bavail,D2/3 receptors [3]; CP,21.25 pmol/mL
same,Kd,D2/3 receptors [3]; CP,0.08 nM
same,Bavail,"D2/3 receptors [3]; FC, fixed appKd",5.15 pmol/mL
same,Bavail,"D2/3 receptors [3]; Hyp, fixed appKd",3.85 pmol/mL
same,Bavail,"D2/3 receptors [3]; InfC, fixed appKd",4.46 pmol/mL
same,Bavail,D2/3 receptors [3]; NAc,11.75 pmol/mL
same,Kd,D2/3 receptors [3]; NAc,0.27 nM
same,Bavail,"D2/3 receptors [3]; SupC, fixed appKd",3.97 pmol/mL
same,Bavail,"D2/3 receptors [3]; VTA, fixed appKd",4.01 pmol/mL
O=C(CCCN1CCC(O)(c2ccc(Cl)cc2)CC1)c1ccc(F)cc1 [haloperidol],increase in Bavail vs vehicle-treated group,"D2/3 receptors [4]; left CP, p = 0.07",17.9% and 17.97%
same,Bavail of [^123I]epidepride in haloperidol-treated group,D2/3 receptors [4]; left CP,25.67 ± 2.30 pmol/mL
same,increase in Bavail vs vehicle-treated group,"D2/3 receptors [4]; right CP, p = 0.12",13.8% and 13.84%
same,Bavail of [^123I]epidepride in haloperidol-treated group,D2/3 receptors [4]; right CP,25.33 ± 2.52 pmol/mL
